Laboratory results published in patent US20040180093A1, “Polymer compositions with bioactive agent, medical articles, and methods” (3M Innovative Properties Company, priority 2003, published 2004).

Tested on: Staphylococcus aureus bacteria
Experiment: 2 Hours % Live Bacteria Test
Assay type: cell-based
Details: standard solution 0.5 wt-% in DI, calculated Ag+ weight 22,224 μg
Experimental: The effectiveness of a sample was tested using a L-7012, Bacterial Viability Kit, available from Molecular Probes (Eugene, Oreg.). The procedure is outlined below using the red, propidium iodide dye, and green, SYTO 9 dye, contained in the kit to stain the live and dead bacteria.
Preparation of bacteria solution: Staphylococcus aureus bacteria were grown in Trypticase (Tryptic) Soy Broth (TSB) medium overnight. Bacteria were concentrated by centrifugation at 10,000× gravity for 15 minutes (min). Supernatant was removed and the pellet was re-suspended in MilliQ water (filtered through a 0.2 μm pore-size filter) or in Butterfield phosphate buffer (from Hardy Diagnostics, Santa Maria, Calif.). […]
Sample preparation: All prototypes were prepared by punching out a 1-inch (2.54-cm) diameter samples using a stainless steel punch; sometimes as indicated in the examples a 1-inch (2.54 cm) disk was further cut with scissors in eighths and then evaluated. […]
Bacteria labeling and Anti-microbial testing: 7 m]L of bacteria solution at initial concentration of approximately 1×10^8 bacteria/mL were pipetted into a 50 mL conical tube containing the sample. […] These solutions were then measured by flow cytometry. Cell viability was measured using the BD FACSCaliber flow cytometer (made by Becton Dickinson & Company, Franklin Lakes, N.J.). […]

`O=[N+]([O-])[O-].[Ag+]` [silver nitrate, Silver Nitrate] was tested, and the “% live bacteria after 2 hours” value was 15.8%.
